# Reference: ChEMBL document CHEMBL1201862, “PubChem BioAssay data set” (2004)
#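 Grown in 96-well plates, cells were treated for 48 hours with each compound at five concentrations. Insufficient inhibition: endpoint recorded as highest concentration tested. Abbreviation: GI50, concentration required for 50% inhibition of growth.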 Calls of active or inactive are those of the source. Cut-off read from the data, not from the text of the source: active = GI50 up to about 1.1 µM and inactive = higher.
# How the values were obtained:
# Experiment in all cases: NCI-60 cell line screen, 48 h
# [1] = test system: 786-0
# [2] = test system: COLO 205
# [3] = test system: EKVX
# [4] = test system: HL-60
# [5] = test system: K562
# [6] = test system: MOLT-4
# [7] = test system: NCI-H522
# [8] = test system: OVCAR-5
# [9] = test system: RXF 393
# [10] = test system: SF-295
# [11] = test system: SN12C
# [12] = test system: SW-620
# [13] = test system: TK-10
# [14] = test system: UO-31
# [15] = test system: KM12
SMILES,GI50 [1],GI50 [2],GI50 [3],GI50 [4],GI50 [5],GI50 [6],GI50 [7],GI50 [8],GI50 [9],GI50 [10],GI50 [11],GI50 [12],GI50 [13],GI50 [14],GI50 [15]
COC(=O)C1=C(SC)SC2(C(=O)OC)C3C=C(C)C4C(N13)C42C(=O)OC (configuration not stated),> 100 µM (inactive),> 100 µM (inactive),> 100 µM (inactive),> 100 µM (inactive),> 100 µM (inactive),> 100 µM (inactive),> 100 µM (inactive),> 100 µM (inactive),> 100 µM (inactive),> 100 µM (inactive),> 100 µM (inactive),> 100 µM (inactive),> 100 µM (inactive),> 100 µM (inactive),
O=C1O/C(=C(/c2ccc(Cl)cc2)c2nc3ccccc3[nH]2)C(O)=C1c1ccc(Cl)cc1,3.36 µM (inactive),1.59 µM (inactive),1.46 µM (inactive),2 µM (inactive),1.85 µM (inactive),1.95 µM (inactive),0.944 µM (active),2.43 µM (inactive),2.26 µM (inactive),3.99 µM (inactive),2.72 µM (inactive),3.48 µM (inactive),2.96 µM (inactive),2.9 µM (inactive),3.29 µM (inactive)
Cc1c2[nH]c3ccc(Br)cc3c2c(C)c2nccc(O)c12,11.1 µM (inactive),12.5 µM (inactive),16.4 µM (inactive),12.1 µM (inactive),17 µM (inactive),5.57 µM (inactive),12 µM (inactive),14.5 µM (inactive),,14.5 µM (inactive),13.2 µM (inactive),11.7 µM (inactive),12.8 µM (inactive),11.1 µM (inactive),12.4 µM (inactive)
COc1cc2c(cc1OC)C(C#N)(Cc1ccccc1)N(C(=O)c1ccccc1)C=C2 (configuration not stated),> 100 µM (inactive),35.2 µM (inactive),39.6 µM (inactive),36.4 µM (inactive),44.3 µM (inactive),32.5 µM (inactive),33.9 µM (inactive),> 100 µM (inactive),24.4 µM (inactive),> 100 µM (inactive),> 100 µM (inactive),81.5 µM (inactive),> 100 µM (inactive),36 µM (inactive),60.7 µM (inactive)
COC1=CC(O)(CC(N)=O)c2ccccc2C1=O (configuration not stated),> 100 µM (inactive),> 100 µM (inactive),> 100 µM (inactive),> 100 µM (inactive),> 100 µM (inactive),> 100 µM (inactive),> 100 µM (inactive),> 100 µM (inactive),> 100 µM (inactive),> 100 µM (inactive),> 100 µM (inactive),> 100 µM (inactive),> 100 µM (inactive),> 100 µM (inactive),> 100 µM (inactive)
CC(=O)O[C@H]1CCC2[C@@H]3CCC4C(=O)c5oncc5C[C@]4(C)C3CC[C@@]21C (some centres not stated),> 100 µM (inactive),> 100 µM (inactive),22.4 µM (inactive),> 100 µM (inactive),> 100 µM (inactive),> 100 µM (inactive),,> 100 µM (inactive),> 100 µM (inactive),39.5 µM (inactive),> 100 µM (inactive),> 100 µM (inactive),> 100 µM (inactive),> 10 µM (inactive),> 100 µM (inactive)
CCOC(=O)Nc1ccc(S(=O)(=O)I)cc1.CCOC(=O)Nc1ccc(S(=O)(=O)I)cc1.CNC(=O)N=O.NC(=O)OCCCl,> 100 µM (inactive),> 100 µM (inactive),,45.3 µM (inactive),40 µM (inactive),> 100 µM (inactive),,,,78 µM (inactive),> 100 µM (inactive),61.8 µM (inactive),> 100 µM (inactive),> 100 µM (inactive),> 100 µM (inactive)
COc1cc(/C=C2/C(=O)N(C(=O)OCc3ccccc3)C(Cc3cc(OC)c(OC)c(C)c3OC)C(=O)N2Cc2ccccc2)c(OC)c(C)c1OC (configuration not stated),> 100 µM (inactive),> 100 µM (inactive),> 100 µM (inactive),7.52 µM (inactive),39 µM (inactive),8.09 µM (inactive),11 µM (inactive),> 100 µM (inactive),> 100 µM (inactive),> 100 µM (inactive),> 100 µM (inactive),> 100 µM (inactive),> 100 µM (inactive),> 100 µM (inactive),> 100 µM (inactive)
COc1cc2c(c(OC)c1OC)-c1[nH]ncc1CC2,> 100 µM (inactive),> 100 µM (inactive),> 100 µM (inactive),> 100 µM (inactive),> 100 µM (inactive),> 100 µM (inactive),,> 100 µM (inactive),,> 100 µM (inactive),> 100 µM (inactive),> 100 µM (inactive),> 100 µM (inactive),> 100 µM (inactive),> 100 µM (inactive)
OCCCc1cnco1,> 100 µM (inactive),> 100 µM (inactive),> 100 µM (inactive),> 100 µM (inactive),> 100 µM (inactive),> 100 µM (inactive),,> 100 µM (inactive),> 100 µM (inactive),> 100 µM (inactive),> 100 µM (inactive),> 100 µM (inactive),> 100 µM (inactive),> 100 µM (inactive),> 100 µM (inactive)
C/C(CC(=O)NCCc1ccccc1)=N\NS(=O)(=O)c1ccc(C)cc1,> 100 µM (inactive),> 100 µM (inactive),> 100 µM (inactive),> 100 µM (inactive),> 100 µM (inactive),> 100 µM (inactive),> 100 µM (inactive),> 100 µM (inactive),> 100 µM (inactive),> 100 µM (inactive),,> 100 µM (inactive),> 100 µM (inactive),> 100 µM (inactive),> 100 µM (inactive)
C=C(CCCO)[C@@H]1CC[C@@](C)(O)[C@H]1C,> 100 µM (inactive),> 100 µM (inactive),> 100 µM (inactive),,> 100 µM (inactive),> 100 µM (inactive),> 100 µM (inactive),> 100 µM (inactive),> 100 µM (inactive),> 100 µM (inactive),> 100 µM (inactive),> 100 µM (inactive),> 100 µM (inactive),> 100 µM (inactive),> 100 µM (inactive)
CN(C)c1ccc(N=O)c(O)c1.CN(C)c1ccc(N=O)c(O)c1.[SiH4],20.8 µM (inactive),2.96 µM (inactive),15.3 µM (inactive),4.41 µM (inactive),16.3 µM (inactive),11.5 µM (inactive),1.53 µM (inactive),24 µM (inactive),,14.3 µM (inactive),12 µM (inactive),10.2 µM (inactive),14.1 µM (inactive),16.3 µM (inactive),14.6 µM (inactive)
O=C(/C=C/c1ccccc1F)C(c1ccccc1)c1ccccc1,2.42 µM (inactive),,11.2 µM (inactive),3.07 µM (inactive),3.7 µM (inactive),1.24 µM (inactive),2.62 µM (inactive),,,2.06 µM (inactive),4 µM (inactive),3.83 µM (inactive),4.72 µM (inactive),12.3 µM (inactive),3.95 µM (inactive)
CC(C)c1cccc(C(C)C)c1N1C(=O)C(=O)C(c2nc3ccccc3o2)C(=O)C1=O,14.4 µM (inactive),32.8 µM (inactive),> 100 µM (inactive),30.3 µM (inactive),28.2 µM (inactive),,19.5 µM (inactive),> 100 µM (inactive),92.3 µM (inactive),> 100 µM (inactive),> 100 µM (inactive),48.1 µM (inactive),> 100 µM (inactive),94 µM (inactive),> 100 µM (inactive)
O=C(c1ccccc1)[C@@H]1C[C@H](Sc2ccccc2)c2cc(Cl)ccc2N1,18.2 µM (inactive),45.5 µM (inactive),10 µM (inactive),,18.9 µM (inactive),7.08 µM (inactive),22.1 µM (inactive),37.6 µM (inactive),6.64 µM (inactive),28.1 µM (inactive),15.7 µM (inactive),22.5 µM (inactive),25.2 µM (inactive),12.7 µM (inactive),57.5 µM (inactive)
O=C(CCC(=O)Nc1ccc(Cl)c(Cl)c1)CC(=O)c1ccc(Br)cc1,> 100 µM (inactive),> 100 µM (inactive),> 100 µM (inactive),,47.8 µM (inactive),> 100 µM (inactive),> 100 µM (inactive),> 100 µM (inactive),> 100 µM (inactive),,> 100 µM (inactive),> 100 µM (inactive),> 100 µM (inactive),> 100 µM (inactive),> 100 µM (inactive)
Nc1ccc(C(=O)NN2C(=O)C(Cl)C2c2ccccc2)cc1 (configuration not stated),> 100 µM (inactive),> 100 µM (inactive),> 100 µM (inactive),,> 100 µM (inactive),> 100 µM (inactive),> 100 µM (inactive),> 100 µM (inactive),,> 100 µM (inactive),> 100 µM (inactive),> 100 µM (inactive),> 100 µM (inactive),> 100 µM (inactive),> 100 µM (inactive)
COc1cc(/C=C2\C(=O)N(C(=O)Cc3ccccc3)N=C2C)cc(OC)c1OC,> 100 µM (inactive),> 100 µM (inactive),> 100 µM (inactive),> 100 µM (inactive),> 100 µM (inactive),> 100 µM (inactive),> 100 µM (inactive),> 100 µM (inactive),,> 100 µM (inactive),> 100 µM (inactive),> 100 µM (inactive),> 100 µM (inactive),> 100 µM (inactive),> 100 µM (inactive)
